These results are taken from doi:10.1101/757047v1 (biorxiv, 2019).

Like-named read-outs stand apart in the source and are kept apart here.

Test [1] concerns the target T1, SLK (Homo sapiens, UniProt Q9H2G2). The experiment in a line: biochemical.
Test [2] has as its target T2, full length GAK protein N-terminally fused with NanoLuc luciferase (Homo sapiens, UniProt O14976).
T2 sequence (O14976 2-1311): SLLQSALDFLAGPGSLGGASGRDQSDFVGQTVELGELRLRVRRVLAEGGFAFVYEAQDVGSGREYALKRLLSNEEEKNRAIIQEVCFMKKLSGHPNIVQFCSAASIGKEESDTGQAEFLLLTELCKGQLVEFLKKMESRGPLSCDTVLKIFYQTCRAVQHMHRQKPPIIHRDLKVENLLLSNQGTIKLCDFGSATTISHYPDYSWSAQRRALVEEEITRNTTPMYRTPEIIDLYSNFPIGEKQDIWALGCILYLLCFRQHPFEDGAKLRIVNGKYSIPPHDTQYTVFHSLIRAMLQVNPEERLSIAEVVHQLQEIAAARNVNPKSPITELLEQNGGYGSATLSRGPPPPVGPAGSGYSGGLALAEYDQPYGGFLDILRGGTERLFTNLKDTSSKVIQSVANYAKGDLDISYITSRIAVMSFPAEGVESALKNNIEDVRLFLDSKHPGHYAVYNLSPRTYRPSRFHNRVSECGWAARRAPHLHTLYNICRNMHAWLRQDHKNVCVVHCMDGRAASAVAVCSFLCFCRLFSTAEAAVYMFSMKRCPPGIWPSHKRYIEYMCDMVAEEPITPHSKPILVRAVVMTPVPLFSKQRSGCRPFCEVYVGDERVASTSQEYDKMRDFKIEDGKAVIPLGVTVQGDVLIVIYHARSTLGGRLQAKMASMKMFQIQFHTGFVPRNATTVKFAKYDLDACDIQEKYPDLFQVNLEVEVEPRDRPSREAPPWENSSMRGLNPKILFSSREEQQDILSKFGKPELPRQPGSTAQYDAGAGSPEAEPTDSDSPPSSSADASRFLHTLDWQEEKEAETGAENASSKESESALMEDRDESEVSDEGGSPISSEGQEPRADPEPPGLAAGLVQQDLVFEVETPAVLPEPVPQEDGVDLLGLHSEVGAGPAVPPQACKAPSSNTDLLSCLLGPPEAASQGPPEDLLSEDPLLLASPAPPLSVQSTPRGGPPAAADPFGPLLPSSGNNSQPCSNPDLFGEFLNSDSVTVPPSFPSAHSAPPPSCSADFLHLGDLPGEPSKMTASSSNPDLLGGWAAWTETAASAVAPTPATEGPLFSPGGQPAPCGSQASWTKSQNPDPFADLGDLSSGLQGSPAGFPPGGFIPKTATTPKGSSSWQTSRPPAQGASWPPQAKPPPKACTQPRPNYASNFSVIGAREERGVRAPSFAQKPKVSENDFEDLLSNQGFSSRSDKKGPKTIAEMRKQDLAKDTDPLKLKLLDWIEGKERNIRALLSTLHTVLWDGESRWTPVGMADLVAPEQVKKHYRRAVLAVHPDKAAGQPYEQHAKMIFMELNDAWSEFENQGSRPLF
The experiment in a line: cell-based. More on the design: species or system HEK293T.

Test [3] has as its target T3, GAK (Homo sapiens, UniProt O14976).
T3 sequence (O14976 12-347 limits assumed): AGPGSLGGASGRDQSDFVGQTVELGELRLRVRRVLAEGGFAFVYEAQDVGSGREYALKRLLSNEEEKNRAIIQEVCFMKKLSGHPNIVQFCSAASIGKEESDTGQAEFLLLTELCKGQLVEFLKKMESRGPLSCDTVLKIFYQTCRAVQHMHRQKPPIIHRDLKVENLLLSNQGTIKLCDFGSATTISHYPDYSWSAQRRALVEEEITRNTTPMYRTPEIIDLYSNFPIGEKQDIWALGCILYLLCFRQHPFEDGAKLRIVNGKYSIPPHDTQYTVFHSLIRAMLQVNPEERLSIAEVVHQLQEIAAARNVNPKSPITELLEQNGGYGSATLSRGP
The experiment in a line: biochemical.

Test [4] deals with T3, GAK. The experiment in a line: biochemical. This is another data set of the same source.
Test [5] addresses T1, SLK. The experiment in a line: biochemical. The source holds these as a separate data set.
For test [6], the target named is T4, STK10 (Homo sapiens, UniProt O94804). The experiment in a line: biochemical.
T4 sequence (O94804 36-294 limits assumed): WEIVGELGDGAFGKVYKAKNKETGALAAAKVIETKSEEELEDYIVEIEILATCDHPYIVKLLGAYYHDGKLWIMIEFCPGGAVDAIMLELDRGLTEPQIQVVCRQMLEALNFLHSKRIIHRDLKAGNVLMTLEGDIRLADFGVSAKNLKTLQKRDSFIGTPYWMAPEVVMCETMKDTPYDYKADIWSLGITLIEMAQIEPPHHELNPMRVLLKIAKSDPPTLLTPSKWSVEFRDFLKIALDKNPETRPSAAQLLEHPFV
Test [7] deals with T2, full length GAK protein N-terminally fused with NanoLuc luciferase. The experiment in a line: cell-based. More on the design: species or system HEK293T. This is another data set of the same source.
The target of test [8] is T1, SLK. The experiment in a line: biochemical. The source holds these as a separate data set.
Test [9] deals with T4, STK10. The experiment in a line: biochemical. The source holds these as a separate data set.
The target of test [10] is T3, GAK. The experiment in a line: biochemical. This is another data set of the same source.
Test [11] deals with T1, SLK. Briefly: biochemical. The source holds these as a separate data set.
Test [12] addresses T4, STK10. Briefly: biochemical. The source holds these as a separate data set.
For test [13], the target named is T2, full length GAK protein N-terminally fused with NanoLuc luciferase. The experiment in a line: cell-based. More on the design: species or system HEK293T. This is another data set of the same source.

T1 sequence (Q9H2G2 34-292): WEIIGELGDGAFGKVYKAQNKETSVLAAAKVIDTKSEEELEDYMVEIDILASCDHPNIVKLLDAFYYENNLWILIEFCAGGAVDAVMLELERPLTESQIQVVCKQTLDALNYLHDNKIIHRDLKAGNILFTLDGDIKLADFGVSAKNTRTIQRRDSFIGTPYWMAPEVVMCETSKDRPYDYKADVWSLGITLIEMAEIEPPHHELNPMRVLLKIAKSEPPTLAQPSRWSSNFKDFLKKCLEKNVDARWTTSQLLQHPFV

With `C#Cc1cccc(Nc2ncnc3cc(C#N)ccc23)c1` [compound 67, 67], the Ki at SLK [1] is 260 nM; on GAK [3], 100 nM. For the same compound, in test [2], the IC50 is over 5000 nM.

Turning to `C#Cc1cccc(Nc2c(C#N)cnc3ccccc23)c1` [compound 75, 75], the results for the inhibitory constant (Ki) on GAK [4], at SLK [5] and on STK10 [6] were 18 nM, 350 nM and 340 nM, respectively. Also, in [7], 1500 nM corresponded to half-maximal inhibition (IC50).

Turning to `C#Cc1cccc(Nc2c(C#N)cnc3ccc(F)cc23)c1` [compound 76, 76], the inhibition constant Ki on GAK [4] stood at 26 nM; at SLK [5], 540 nM; at STK10 [6], 580 nM. In test [7], this compound yielded an IC50 of 3800 nM.

In the case of `C#Cc1cccc(Nc2c(C#N)cnc3ccc(Cl)cc23)c1` [compound 77, 77], the inhibitory constant (Ki) on GAK [4] was 16 nM; on SLK [5], 710 nM; on STK10 [6] it was 720 nM. Besides, in [7], the half-inhibitory concentration (IC50) turned out to be 3200 nM.

`C#Cc1cccc(Nc2c(C#N)cnc3ccc(Br)cc23)c1` [compound 78, 78]: the inhibitory constant (Ki) at GAK [4] worked out at 17 nM; at SLK [5], 1200 nM; at STK10 [6] it was 1100 nM. In [7], this compound registered a half-inhibitory concentration (IC50) of 4400 nM.

`C#Cc1cccc(Nc2c(C#N)cnc3ccc(I)cc23)c1` [compound 79, 79]: the values for the Ki at GAK [4], at SLK [5] and on STK10 [6] were 20 nM, 1100 nM and 1000 nM, respectively. The compound further showed a half-maximal inhibitory concentration (IC50) in test [7] of over 5000 nM.

As to `C#Cc1cccc(Nc2c(C#N)cnc3ccc(S(C)(=O)=O)cc23)c1` [compound 80, 80], the Ki at GAK [4] is 180 nM; at SLK [5] it was over 55000 nM; on STK10 [6], 42000 nM. Further, the IC50 in [7] is over 5000 nM.

As for `C#Cc1cccc(Nc2c(C#N)cnc3cc(OC)c(OC)cc23)c1` [compound 82], the values for the Ki at SLK [8] and at STK10 [9] were 18 nM and 27 nM, respectively.

For `C#Cc1cccc(Nc2c(C#N)cnc3cc(Cl)ccc23)c1` [compound 84, 84], the inhibition constant Ki was determined as 28 nM on GAK [4], 180 nM on SLK [5] and 210 nM on STK10 [6]. In test [7], this compound registered an IC50 of over 5000 nM.

As for `C#Cc1cccc(Nc2c(C#N)cnc3cc(Br)ccc23)c1` [compound 85, 85], the inhibition constant (Ki) on GAK [4] was 27 nM; at SLK [5] it was 160 nM; at STK10 [6] it was 130 nM. The compound also gave a half-maximal inhibitory concentration (IC50) in test [7] of over 5000 nM.

Turning to `Fc1cc(Nc2ccnc3ccc(Br)cc23)cc(F)c1F` [compound 103, 103], the inhibition constant Ki at GAK [10] is 23 nM; at SLK [11] it was over 55000 nM; at STK10 [12], over 55000 nM. In test [13], this compound registered an IC50 of 4400 nM.

As for `Fc1ccc(Nc2ccnc3ccc(Br)cc23)cc1F` [compound 104, 104], the inhibitory constant (Ki) at GAK [10] was 11 nM; on SLK [11], over 55000 nM; on STK10 [12], over 55000 nM. This compound gave an IC50 in test [13] of over 5000 nM.

On to `Fc1cc(F)cc(Nc2ccnc3ccc(Br)cc23)c1` [compound 105, 105], for which the Ki was 12 nM on GAK [10], over 55000 nM at SLK [11] and over 55000 nM on STK10 [12]. In test [13], this compound had an IC50 of over 5000 nM.

On to `Fc1ccc(Nc2ncnc3ccc(Br)cc23)cc1` [compound 109, 109], for which the inhibitory constant (Ki) is 120 nM at GAK [10], over 55000 nM at SLK [11] and over 55000 nM on STK10 [12]. The same compound gave an IC50 in test [13] of over 5000 nM.

For `Fc1cccc(Nc2ccnc3ccc(Br)cc23)c1` [compound 110, 110], the values for the Ki at GAK [10], at SLK [11] and at STK10 [12] were 19 nM, over 55000 nM and over 55000 nM, respectively. In addition, the IC50 in test [13] was determined as 1900 nM.

On to `Fc1ccccc1Nc1ccnc2ccc(Br)cc12` [compound 111, 111], for which the inhibition constant (Ki) on GAK [10] is 49 nM; at SLK [11], over 55000 nM; at STK10 [12] it was 30000 nM. For the same compound, in [13], it took 2600 nM to reach half-maximal inhibition (IC50).

For the compound `Brc1cccc(Nc2ccnc3ccc(Br)cc23)c1` [compound 112, 112], the inhibitory constant (Ki) on GAK [10] was 72 nM; on SLK [11] it was over 55000 nM; on STK10 [12], over 55000 nM. Also, the IC50 in [13] was over 5000 nM.

Turning to `Brc1cccc(Nc2ncnc3ccc(Br)cc23)c1` [compound 113, 113], the inhibition constant Ki at GAK [10] stood at 84 nM; at SLK [11], 9400 nM; at STK10 [12], 6000 nM. In test [13], this compound yielded a concentration for half-maximal inhibition (IC50) of over 5000 nM.
